Peptide text beside a SMILES is read from it.
Columns and labels:
human recombinant MMP2 = target: T1, human recombinant MMP2 (Homo sapiens, UniProt P08253); assay: MMP-Ac2-26 PA cleavage assay; format: biochemical; details: 40 nM MMP2, 24 hours, 37° C.
T1 construct: purchased R&D systems
T1 sequence (P08253 110-660): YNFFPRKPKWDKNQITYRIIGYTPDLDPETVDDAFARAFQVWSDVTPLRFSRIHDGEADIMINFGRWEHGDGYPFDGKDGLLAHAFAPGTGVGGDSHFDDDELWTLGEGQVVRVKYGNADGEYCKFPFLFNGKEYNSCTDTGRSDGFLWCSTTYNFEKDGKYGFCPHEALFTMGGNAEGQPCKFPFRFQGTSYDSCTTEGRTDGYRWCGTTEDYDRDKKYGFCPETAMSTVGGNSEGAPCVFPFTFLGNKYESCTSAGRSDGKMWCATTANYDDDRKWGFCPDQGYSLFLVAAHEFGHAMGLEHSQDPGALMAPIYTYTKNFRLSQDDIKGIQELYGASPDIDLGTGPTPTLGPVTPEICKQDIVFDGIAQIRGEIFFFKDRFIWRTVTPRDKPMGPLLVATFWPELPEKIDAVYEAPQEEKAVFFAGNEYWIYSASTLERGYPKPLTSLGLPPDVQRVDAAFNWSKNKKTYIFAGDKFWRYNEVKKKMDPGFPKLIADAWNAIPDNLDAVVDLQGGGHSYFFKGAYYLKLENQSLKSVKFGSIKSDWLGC
Procedure: ROS-Ac2-26 and MMP-Ac2-26 PA cleavage assays: To examine ROS-mediated cleavage, 3-morpholinosydnonimine hydrochloride (SIN-1, Sigma-Aldrich or Abcam) was used. ROS-Ac2-26 PAs were reconstituted to 0.5 mM in phosphate buffer and treated with 100 μM SIN-1 for 24 hours at 37° C. For MMP2/9-mediated cleavage, human recombinant MMP2 (R&D systems, carrier-free) was used, activated with freshly prepared 1 mMp-aminophenylmercuric acetate (APMA, Sigma-Aldrich) for one hour at 37° C. The APMA disrupts the cysteine-zinc bond in MMP2 responsible for enzyme latency by liberation of the sulfhydryl group. 10% MMP-Ac2-26 PA co-assemblies were prepared at 0.5 mM in a cleavage buffer containing 50 mM tricine, 50 mM NaCl, 50 μM ZnCl2, and 10 mM CaCl2) at pH 7.4, and treated with 40 nM human recombinant MMP2 for 24 hours at 37° C. At the end of each time point, the samples were stored at −20° C., effectively stopping the cleavage reactions. Samples were analyzed at room temperature, 0.04-0.3 mg/mL with 0.1% NH4OH using a ThermoFisher Q Exactive HIF-X (ThermoFisher, Bremen, Germany) mass spectrometer coupled with a Waters Acquity H-class liquid chromatograph system. […] All measurements were recorded at a resolution setting of 120,000. […] Injection volume for all samples was […]. Data was analyzed on Xcalibur (ThermoFisher, Breman, Germany).

J774.2 mouse macrophages = assay: In Vitro Cholesterol Efflux Assay (Example 1); format: cell-based; details: two- and threefold higher concentrations of LXR
[1] = Dialysis LXR agonist release study; format: physicochemical; details: non-encapsulated LXR agonist, PBS, within the first hour
Procedure: LXR-40% ApoA1 PA (1 mM with respect to PA) was dissolved in PBS. […] To each dialysis cup 0.1 mL of sample was added with one cup used for each time-point to be measured. All samples were dialyzed against 4 mL of PBS at 37° C. The total contents of one dialysis cup were isolated and kept at 4° C. until measurement at each time point. […] For LC-MS, a 5 to 95% acetonitrile (0.1% formic acid) gradient was run over 30 min with mobile phase containing 0.1% NH40H. A total ion chromatogram was obtained in MS mode and integrated using Mass Hunter Agilent software. The peak area corresponding to [M-H]− for GW3965 was recorded for each sample in negative ion mode and normalized according to the volume of sample present. Percent encapsulation was determined as follows:
[formula] where NPA is the normalized peak area corresponding to LXR agonist (normalized for solution volume).

[2] = Solubility of LXR agonist without PA; format: physicochemical; details: deionized water or PBS
LDLR KO mice = assay: Atherosclerosis treatment study; format: in vivo, mouse; details: both sexes
Procedure: Mouse model of atherosclerosis: To study atherosclerosis, the LDLR KO mouse was used. LDLR KO mice are fed a high fat “western” diet (Teklad TD.88137) starting at 4 weeks of age. This diet consists of 20% fat, 0.2% cholesterol, and 34% high sucrose. LDLR KO mice fed this diet typically develop severe hypercholesterolemia (>800 mg/dL) and hypertriglyceridemia (>300 mg/dL) after only 2 weeks. By 12 weeks on the high fat diet, atherosclerotic lesions are detected in the aortic root and aortic arch on cryosections stained with Oil Red O (Sigma). Atherosclerosis was quantified in the aortic root as a percentage of the aortic root by taking the atherosclerotic area divided by the total aortic root area. Measurements were made with ImageJ software. All protocols for the animal model and procedures in this manuscript were approved by Northwestern University's Institutional Animal Care and Use Committee.
(§1) Blood samples were collected at the end of the treatment study for toxicology analysis. Mice were euthanized three days after their 16th treatment.
(§2) Tissue processing and imaging: Mice were sacrificed and euthanized under inhaled isoflurane anesthesia by diaphragm disruption and exsanguination. Phlebotomy was performed through direct right ventricular cardiac puncture using a 1 mL syringe and 25 G needle. Perfusion was performed through left ventricular cardiac puncture with 10 mL PBS and 10 mL 10% sucrose solution. The lungs, liver, spleen, kidney, aortic root, aortic arch, and descending aorta were harvested and stored in 10% sucrose for 20 minutes. Organs and vessels were then flash-frozen in Optimal Cutting Temperature embedding medium 4583 (Tissue-Tek®) with liquid nitrogen. Frozen specimens were stored at −80° C. and cryosectioned at […]. Confocal microscopy was performed on a Nikon AIR microscope. Two sets of images were acquired with a 10× Plan Fluor NA 0.3 objective. PAs were identified through quantification of the Alexa Fluor® 546 conjugated dye with 561 nm excitation and a 600/50 nm emission filter.
Images were acquired with spectral detection and spectrally unmixed to accurately separate green autofluorescence from the red Alexa Fluor® 546 signal. Brightfield and fluorescent microscopy were performed using a Zeiss Axio Imager.A2 microscope with AxioVision software (release 4.8.2, 06-2010). All confocal and fluorescent sections were mounted with ProGold Diamond mounting media (Sigma). Slides were stained with Oil Red O to image and quantify atherosclerosis under brightfield microscopy. The elastic laminae were identified using the green fluorescent protein (GFP) filter with an exposure time of 3500 ms under 5× magnification. Nanofibers were identified in the aortic root by presence of Alexa Fluor® 546 on the Cy3 filter under 5-10× magnification, and in the internal organs under 20× magnification. Fluorescent pixel quantification in the aortic root and within organs was performed with ImageJ software.
(§3) Statistics: The effect of treatments and sex on atherosclerosis progression in mice was analyzed using one- or two-factor analysis of variance (ANOVA) followed by a post-hoc student's t-test. The toxicological effects of treatments were also analyzed using two-factor ANOVA and a post-hoc student's t-test. Toxicological effects of treatments on liver proteins AST, ALT, and ALP were further analyzed using ordinal logistic regression models of likelihood ratio tests, followed by a post-hoc Wald test

[3] = Treatment study serum chemistry (toxicology analysis); format: in vivo, mouse; details: for Alanine Aminotransferase (ALT) / Alkaline phosphatase / Aspartate Aminotransferase (AST) / Bicarbonate and CO2 / Bilirubin - Conjugated / Bilirubin - Unconjugated / Blood Urea Nitrogen / Cholesterol / Creatine / Creatine Kinase / Globulin / Glucose / Potassium / Sodium / Total Bilirubin / Total Protein: group median, end of 8-week treatment
Procedure: as §1, §2, §3

[4] = tested on: J774.2 murine macrophages; format: cell-based, mouse
Procedure: To measure cell metabolic activity, thiazolyl blue tetrazolium bromide (MTT, Sigma-Aldrich) was added to cells at 0.4 mg/mL in complete medium for 4 hours at 37° C. The plates were then aspirated and 100 µL of DMSO added for 10-15 minutes at room temperature on a plate shaker at low speed setting. The plates were run on an Epoch plate reader using absorbance at 560 nm corrected for background at 670 nm. Flow cytometry analysis for iNOS expression followed the methods described above.

## C16-V2A2 (SEQ ID NO: 8)-E2-GGGPQGIWGQGK (SEQ ID NO: 1)-AMVSEFLKQAWFIENEEQEYVQTVK (SEQ ID NO: 7)-NH2 (C16-VVAAEEGGGPQGIWGQGKAMVSEFLKQAWFIENEEQEYVQTVK-NH2) [MMP-Ac2-26 PA]
Human recombinant MMP2
  Ac2-26 release from PA nanofibers: released Ac2-26

## Cl.O=C(O)Cc1cccc(OCCCN(Cc2cccc(C(F)(F)F)c2Cl)CC(c2ccccc2)c2ccccc2)c1 [LXR, GW3965]
J774.2 mouse macrophages
  LXR effects upon macrophage efflux: no significant increases
[1]
  release across the dialysis membrane: up to 85%
[2]
  solubility: insoluble
LDLR KO mice
  reversal of atherosclerosis from baseline levels: approximately 5%
LDLR KO mice; twice per week over eight weeks, percent of atherosclerosis in the aortic root
  atherosclerosis progression in comparison to the PBS control: significantly decreased
[3]; All mice
  Alanine Aminotransferase (ALT): 40 U/L
  Alkaline phosphatase: 65.5 U/L
  Aspartate Aminotransferase (AST): 135 U/L
  Bicarbonate and CO2: 12 mmol/L
  Bilirubin - Conjugated: 0.05 mg/dL
  Bilirubin - Unconjugated: 0.3 mg/dL
  Blood Urea Nitrogen: 23 mg/dL
  Cholesterol: 2000.5 mg/dL
  Creatine: 0 U/L
  Creatine Kinase: 137.5 U/L
  Globulin: 2.7 g/dL
  Glucose: 237 mg/dL
  Potassium: 5.2 mmol/L
  Sodium: 139.5 mmol/L
  Total Bilirubin: 0.4 mg/dL
  Total Protein: 5.45 g/dL
[3]; Females
  Alanine Aminotransferase (ALT): 33 U/L
  Alkaline phosphatase: 73 U/L
  Aspartate Aminotransferase (AST): 142 U/L
  Bicarbonate and CO2: 10 mmol/L
  Bilirubin - Conjugated: 0 mg/dL
  Bilirubin - Unconjugated: 0.5 mg/dL
  Blood Urea Nitrogen: 21.5 mg/dL
  Cholesterol: 2029 mg/dL
  Creatine: 0 U/L
  Creatine Kinase: 136 U/L
  Globulin: 2.3 g/dL
  Glucose: 203 mg/dL
  Potassium: 4.6 mmol/L
  Sodium: 140 mmol/L
  Total Bilirubin: 0.6 mg/dL
  Total Protein: 5.4 g/dL
[3]; Males
  Alanine Aminotransferase (ALT): 47 U/L
  Alkaline phosphatase: 41 U/L
  Aspartate Aminotransferase (AST): 102 U/L
  Bicarbonate and CO2: 14 mmol/L
  Bilirubin - Conjugated: 0.1 mg/dL
  Bilirubin - Unconjugated: 0.2 mg/dL
  Blood Urea Nitrogen: 24 mg/dL
  Cholesterol: 1972 mg/dL
  Creatine: 0 U/L
  Creatine Kinase: 138 U/L
  Globulin: 2.8 g/dL
  Glucose: 259 mg/dL
  Potassium: 5.2 mmol/L
  Sodium: 139 mmol/L
  Total Bilirubin: 0.3 mg/dL
  Total Protein: 5.5 g/dL
[3]; female mice
  AST levels in comparison to the PBS control: no significant differences
[3]; male mice
  aspartate aminotransferase (AST) in the blood in comparison to PBS: significantly elevated levels of aspartate aminotransferase (AST)

## CC[C@H](C)[C@H](NC(=O)[C@H](Cc1ccccc1)NC(=O)[C@H](Cc1c[nH]c2ccccc12)NC(=O)[C@H](C)NC(=O)[C@H](CCC(N)=O)NC(=O)[C@H](CCCCN)NC(=O)[C@H](CC(C)C)NC(=O)[C@H](Cc1ccccc1)NC(=O)[C@H](CCC(=O)O)NC(=O)[C@H](CO)NC(=O)[C@@H](NC(=O)[C@H](CCSC)NC(=O)[C@H](C)NC(C)=O)C(C)C)C(=O)N[C@@H](CCC(=O)O)C(=O)N[C@@H](CC(N)=O)C(=O)N[C@@H](CCC(=O)O)C(=O)N[C@@H](CCC(=O)O)C(=O)N[C@@H](CCC(N)=O)C(=O)N[C@@H](CCC(=O)O)C(=O)N[C@@H](Cc1ccc(O)cc1)C(=O)N[C@H](C(=O)N[C@@H](CCC(N)=O)C(=O)N[C@H](C(=O)N[C@H](C(=O)N[C@@H](CCCCN)C(=O)O)C(C)C)[C@@H](C)O)C(C)C [Ac2-26] (Ac-AMVSEFLKQAWFIENEEQEYVQTVK-OH; N-terminus and C-terminus assumed)
[4]
  cellular metabolism (MTT) in comparison to the stimulated control: did not significantly affect cellular metabolism
